In brackets after ≈: the same amount, converted by molar mass. Activity calls are given as the source filed them. No cut-off for these calls is given here.
Legend:
[1] = test system: Staphylococcus aureus; assay: Bactericidal activity against methicillin-resistant Staphylococcus aureus ATCC 29213 incubated for 24 hrs by time kill assay; format: functional, organism-based
[2] = test system: Staphylococcus aureus; assay: Antibacterial activity against Staphylococcus aureus ATCC 25923 assessed as bacterial growth inhibition incubated for 18 to 24 hrs by NCCLS based assay; format: functional; conditions: time 18-24 hrs
[3] = test system: Staphylococcus aureus; assay: Drug resistance against Staphylococcus aureus assessed as fold increase in MIC measured after 21 passages relative to control; format: functional
[4] = Toxicity in Wistar rat assessed as piloerection at 2000 mg/kg, po measured for 48 hrs; format: organism-based; conditions: in vivo
[5] = Toxicity in Wistar rat assessed as absolute spleen weight at 2000 mg/kg, po measured after 14 days (reference value: 0.61 +/- 0.05 g); format: organism-based; conditions: in vivo, 336 h, time 14 day
[6] = Toxicity in Wistar rat assessed as relative lungs weight at 2000 mg/kg, po measured after 14 days (reference value: 0.62 +/- 0.18 %); format: organism-based; conditions: in vivo, 336 h, time 14 day
[7] = Toxicity in Wistar rat assessed as relative uterus weight at 2000 mg/kg, po measured after 14 days (reference value: 0.45 +/- 0.03 %); format: organism-based; conditions: in vivo, 336 h, time 14 day
[8] = Toxicity in Wistar rat assessed as proliferation of oval cells in liver at 2000 mg/kg, po measured for 14 days by H and E staining based analysis; format: organism-based; conditions: in vivo, 336 h, time 14 day
[9] = Toxicity in Wistar rat assessed as capillary congestion in lungs at 2000 mg/kg, po measured for 14 days by H and E staining based analysis; format: organism-based; conditions: in vivo, 336 h, time 14 day
[10] = test system: Staphylococcus aureus; assay: Antibacterial activity against methicillin-resistant Staphylococcus aureus infected in neutropenic Balb/c mouse model assessed as reduction in bacterial load in lungs at 15 mg/kg, iv measured after 5 days; format: functional; conditions: time 5 day
[11] = test system: Staphylococcus aureus; assay: Antibacterial activity against methicillin-resistant Staphylococcus aureus infected in neutropenic Balb/c mouse model assessed as reduction in bacterial load in kidney at 40 mg/kg, iv measured after 5 days; format: functional, organism-based; conditions: time 5.0 day
[12] = test system: Staphylococcus aureus; assay: Antibacterial activity against methicillin-resistant Staphylococcus aureus infected in neutropenic Balb/c mouse model assessed as reduction in inflammatory cell infiltration in lungs at 40 mg/kg, iv measured after 5 days; format: functional, organism-based; conditions: time 5.0 day

Q: With C=C[C@]1(C)C[C@@H](OC(=O)CSc2ncnc(N(C)C)n2)[C@]2(C)[C@H](C)CC[C@]3(CCC(=O)[C@H]32)[C@@H](C)[C@@H]1O as the compound, how does the Activity [1] read?
A: Its Activity is “Dose-Dependent Effect”.

Q: And the MIC [2]?
A: Its MIC is 0.031 µg/mL (≈ 0.06 µM).

Q: What about the “fold change (FC)” value [3] of the same compound?
A: The value was 16.

Q: And the Activity [4]?
A: The Activity was “Non-Toxic”.

Q: What about the Activity [5] of the same compound?
A: The Activity was 0.43 g.

Q: What about the Activity [6] of the same compound?
A: Its Activity is 0.53%.

Q: What about the Activity [7] of the same compound?
A: The Activity was 0.29%.

Q: What about the Activity [8] of the same compound?
A: The Activity was “Toxic”.

Q: What about the Activity [9] of the same compound?
A: Its Activity is “Toxic”.

Q: And the Activity [10]?
A: The Activity was 1.82 log10CFU/ml.

Q: What about the Activity [11] of the same compound?
A: Its Activity is “Active”.

Q: What about the Activity [12] of the same compound?
A: The Activity was “Active”.

From ChEMBL document CHEMBL5634148, “Synthesis and evaluation of novel pleuromutilin derivatives targeting the 50S ribosomal subunit for antibacterial ability” (Eur J Med Chem, 2023)
